One experiment concerns BMDCs. In words: Cell viability of BMDCs (CellTiter-Glo, cellular ATP). The experiment is classed as cell-based, mouse. To be noted: Mus musculus, BMDC; zymosan-stimulated BMDCs; read-out: Viability loss EC50. The protocol: (§1) Bone marrow-derived DCs were differentiated from C57BL/6 bone marrow in the presence of GM-CSF-conditioned media. CD11c^+ CX3CR1^hi myeloid cells and CD11c^+ CX3CR1^− DCs were isolated from the small intestine lamina propria of Cx3cr1^eGFP/+ mice (12). Detection of cell-surface Thy1.1 expression on BMDCs from 10BiT reporter mice was conducted as described previously (24). Cell viability was estimated by change in total cellular ATP levels using CellTiterGlo assays (Promega). Preparation of recombinant SIK proteins and IC50 measurements were conducted as described previously (21). Total RNA was extracted using a NucleoSpin 96 RNA isolation kit (Macherey-Nagel) followed by cDNA synthesis and multiplex RT-PCR using a microfluidic dynamic array (Fluidigm). The concentrations of TNF-α, IL-6, IL-10, IL-12p40, IL-1β and RANTES in culture supernatants were detected using a FlexSet Cytometric bead array (BD Biosciences). Alternatively, IL-10 secretion was quantified using ELISA (BD Biosciences) or AlphaLISA (PerkinElmer) assays. NO production was estimated based on nitrate content in culture medium using the Greiss reagent.
BMDCs were seeded into black 384-well plates (Corning) at 20,000 cells/well in 40 μL complete DMEM using a Multidrop COMBI (Thermal Scientific) followed by incubation at 37° C. for 2 hr to allow for plate adherence. SIK inhibitors (100 nL/well) were pin-transferred from concentrated DMSO stocks using CyBi-Well Vario (CyBio) into duplicate plates. For each treatment plate, 32 out of 384 wells were pinned with DMSO as negative control and 32 out of 384 wells were pinned with PGE2 (5 μM final concentration). Two days after SIK inhibitor treatment, BMDCs were stimulated with zymosan (4 μg/mL final concentration) dispersed in culture medium (20 μL/well) using a Multidrop COMBI. After 18 hr, 5 μL of resulting supernatant was transferred from the culture plate to white 384-well AlphaLISA plates (Perkin Elmer) using a CyBi-Well Vario. IL-10 abundance in the supernatants was determined using an AlphaLISA assay (PerkinElmer) according to the manufacture's protocol and signal intensity measured using an EnVision multimode plate reader. SIK inhibitor activity was expressed as a % of the differences between the mean abundance of IL-10 in PGE2 versus DMSO wells on a per plate basis. Cell viability assays were conducted on the same tissue culture plates as the IL-10 assay. First media was removed and replaced by solution of 50% (vol/vol) CellTiter-Glo (Promega) in PBS. Luminescence was read using an Envision multimode plate reader, and signal intensity calculated relative to DMSO control wells on a per plate basis.
In general terms: Cellular ATP, detected with luciferase, serves as a proxy for viable cell number.

The target of a further experiment is T1, SIK3 (Homo sapiens, UniProt Q9Y2K2).
T1 construct: made in house
The experiment can be described thus: Protein kinase assay ([γ-32P] ATP, phosphocellulose paper) against SIK3. The experiment is classed as biochemical. Particulars: for remaining activity at 0.1 µM / remaining activity at 1 µM: DMSO set to 100%; for remaining activity at 0.1 µM: read-out: Activity of protein kinase treated with 0.1 μM of I-1 (% control (DMSO)) SIK3; for remaining activity at 1 µM: read-out: Activity of protein kinase treated with 1 μM of I-1 (% control (DMSO)) SIK3; for IC50: read-out: Enzyme Inhibition IC50 SIK3. The protocol:
as §1
In another set of experiments, the activities of the SIK inhibitors described herein against SIK were determined according to the methods reported in Hastie et al., Nature Protocols, 2006, 1, 968-971.
This buffer consisted of 50 mM Tris-HCl, pH 7.5, 0.1 mM EGTA, 1 mg ml^−1 bovine serum albumin and 0.1% (vol/vol) 2-mercaptoethanol.
An assay buffer of 500 mM Tris-HCl, pH 7.5, 1 mM EGTA, and 100 mM magnesium acetate was used for the protein kinase assay.
The specific activity of the [γ-^32P] ATP solution was 1×10^5 to 1×10^6 c.p.m. per nmol depending on what was needed to produce an optimal signal/noise ratio. Stocks of nonradioactive (“cold”) ATP were dissolved in 10 mM HEPES, and the pH of the resulting stock solutions was adjusted to 7.4. To measure the concentration of ATP, a sample of such a stock solution was diluted to 20 μM, and the absorbance of the diluted sample was measured at 259 nm. The absorbance of a 20-μM stock solution of ATP at 259 nm was about 0.31. The 1-mM solution of cold ATP was “spiked” with [γ-^32P] ATP to produce a radioactivity of 1×10^5 to 1×10^6 c.p.m. per nmol.
1) The number of assay samples needed was determined based on, e.g., the following considerations: (i) each condition was assayed in duplicate; (ii) two controls containing peptide or protein substrate and ATP but no SIK were included to assess contamination by any free ATP not incorporated into substrate, alongside two controls lacking a peptide or protein substrate but containing ATP and SIK to correct for any incorporation of phosphate into the kinase itself (e.g., autophosphorylation); and (iii) a maximum of 40 samples were assayed manually at one time by a single person. Microcentrifuge tubes were label distinctly and were placed on ice.
4) Dilute the SIK in enzyme dilution buffer and place on ice.
5) Pipette 5 j±l of 10× concentrated assay buffer, 5 j±l peptide or protein substrate (the two “no-substrate” control tubes had 5 j±l water added instead of peptide or protein substrate), and 30 μl distilled water into each tube. Keep the tubes on ice.
6) Add 5 μl diluted SIK to each tube, except for the two “no-enzyme” control tubes, which had 5 μl enzyme dilution buffer added, and still keeping the tubes on ice. In some cases, premixed “cocktails” of assay components were prepared containing peptide or protein substrate, assay buffer, and distilled water to limit the number of additions to each assay tube. Each of steps 7 to 14 was done behind a plexiglass shield.
7) Insert each tube into the water bath at intervals of 15 s to allow the assay mixture to reach 30° C. Begin the SIK reactions by adding 5 μl of 1 mM [γ-^32P] ATP to each tube at intervals of 15 s. Close each tube, vortex for 1 s to mix the contents and immediately replace in a rack in the water bath. Incubate for 10 min at 30° C. […]

For orientation: EC50 means the concentration giving half of the maximal effect. For orientation: IC50 means the point on the concentration scale where inhibition reaches its midpoint.

T1 sequence (Q9Y2K2 whole entry): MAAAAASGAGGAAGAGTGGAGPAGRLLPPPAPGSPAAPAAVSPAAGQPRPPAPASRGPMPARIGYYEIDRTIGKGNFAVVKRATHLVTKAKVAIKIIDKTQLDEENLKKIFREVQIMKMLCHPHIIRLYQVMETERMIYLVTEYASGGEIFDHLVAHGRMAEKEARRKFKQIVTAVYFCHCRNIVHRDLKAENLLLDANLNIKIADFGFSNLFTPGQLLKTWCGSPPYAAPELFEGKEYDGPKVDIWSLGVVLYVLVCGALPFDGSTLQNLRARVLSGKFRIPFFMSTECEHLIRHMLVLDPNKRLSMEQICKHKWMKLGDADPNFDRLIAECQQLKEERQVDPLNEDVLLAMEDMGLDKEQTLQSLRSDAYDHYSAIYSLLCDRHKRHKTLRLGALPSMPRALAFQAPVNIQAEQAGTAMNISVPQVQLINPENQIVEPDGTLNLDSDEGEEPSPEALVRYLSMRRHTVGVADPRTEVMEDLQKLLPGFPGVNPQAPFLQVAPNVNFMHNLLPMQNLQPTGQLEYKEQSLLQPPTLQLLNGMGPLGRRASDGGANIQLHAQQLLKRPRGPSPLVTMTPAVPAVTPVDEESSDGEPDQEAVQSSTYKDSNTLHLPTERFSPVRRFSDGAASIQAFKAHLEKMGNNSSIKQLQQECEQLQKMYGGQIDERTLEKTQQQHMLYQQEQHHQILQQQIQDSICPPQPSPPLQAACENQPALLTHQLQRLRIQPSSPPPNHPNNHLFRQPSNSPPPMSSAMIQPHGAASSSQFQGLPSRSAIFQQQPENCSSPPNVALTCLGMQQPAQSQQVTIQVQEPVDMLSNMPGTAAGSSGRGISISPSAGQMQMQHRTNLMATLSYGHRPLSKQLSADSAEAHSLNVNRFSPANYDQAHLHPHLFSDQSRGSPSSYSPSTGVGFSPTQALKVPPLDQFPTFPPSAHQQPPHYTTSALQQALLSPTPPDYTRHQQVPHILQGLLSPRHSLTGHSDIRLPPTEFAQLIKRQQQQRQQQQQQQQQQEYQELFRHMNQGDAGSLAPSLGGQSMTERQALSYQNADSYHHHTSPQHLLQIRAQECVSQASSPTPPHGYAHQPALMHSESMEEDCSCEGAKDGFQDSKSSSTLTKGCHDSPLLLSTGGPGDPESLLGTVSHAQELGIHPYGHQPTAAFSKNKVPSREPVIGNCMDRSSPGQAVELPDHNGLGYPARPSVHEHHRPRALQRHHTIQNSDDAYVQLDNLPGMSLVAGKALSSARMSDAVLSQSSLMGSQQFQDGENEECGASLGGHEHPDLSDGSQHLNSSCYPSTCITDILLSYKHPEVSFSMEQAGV

`Cc1cccc(C)c1NC(=O)N1C/C=C\COc2cccc(c2)Nc2cc1ncn2` [I-1]: in the experiment with BMDCs, the EC50 was found to be 10 µM. At SIK3, the remaining activity at 0.1 µM was 33%, the remaining activity at 1 µM came to 13% and the IC50 was found to be 0.0891 µM.
Regarding `CCN1CCN(c2ccc(Nc3cc(-n4ccnc4Nc4c(C)cccc4C)ncn3)cc2)CC1` [II-1, 6-(2-((2,6-dimethylphenyl)amino)-1H-imidazol-1-yl)-N-(4-(4-ethylpiperazin-1-yl)phenyl)pyrimidin-4-amine], the EC50 with BMDCs was 0.0195 µM. Moreover, at SIK3, the remaining activity at 0.1 µM stood at 45%, the remaining activity at 1 µM is 16% and the IC50 is 0.12 µM.

These data come from patent US10265321B2, “Uses of salt-inducible kinase (SIK) inhibitors” (Dana-Farber Cancer Institute, Inc., priority 2014, dated 2019).
